In the supplement of paper PMC10307832:

What was measured:
Test in all cases: relative viability (nuclei count vs DMSO), 5 days (fraction); higher = more cells survive
NCI-H1915 = system: NCI-H1915
Method in brief: (§1)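 After 5 days of treatment, lung cancer cells in 1536-well plates were fixed and stained in a single step (final 0.05% Triton X-100, 1% formaldehyde, 1 ug/ml Hoechst) and their nuclei counted on 4× images. Treatment had been applied by pin tool the day after seeding as one drug alone or as a fixed anchor-drug dose with five library-drug doses (not always all listed) in √10 steps. Relative viability is the nuclei count of treated wells divided by that of vehicle wells, and values are medians of duplicate plates.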

NCI-H596 = system: NCI-H596
Method in brief: as §1

NCI-H2347 = system: NCI-H2347
Method in brief: as §1

LXF-289 = system: LXF-289
Method in brief: as §1

NCI-H661 = system: NCI-H661
Method in brief: as §1

NCI-H441 = system: NCI-H441
Method in brief: as §1

NCI-H3122 = system: NCI-H3122
Method in brief: as §1

SK-MES-1 = system: SK-MES-1
Method in brief: as §1

NCI-H1355 = system: NCI-H1355
Method in brief: as §1

NCI-H1755 = system: NCI-H1755
Method in brief: as §1

NCI-H1563 = system: NCI-H1563
Method in brief: as §1

NCI-H322M = system: NCI-H322M
Method in brief: as §1

NCI-H727 = system: NCI-H727
Method in brief: as §1

NCI-H460 = system: NCI-H460
Method in brief: as §1

LCLC-103H = system: LCLC-103H
Method in brief: as §1

NCI-H520 = system: NCI-H520
Method in brief: as §1

PC-14 = system: PC-14
Method in brief: as §1

NCI-H1651 = system: NCI-H1651
Method in brief: as §1

NCI-H650 = system: NCI-H650
Method in brief: as §1

RERF-LC-KJ = system: RERF-LC-KJ
Method in brief: as §1

NCI-H1792 = system: NCI-H1792
Method in brief: as §1

## Clc1ccc(Nc2nnc(Cc3ccncc3)c3ccccc23)cc1 [Vatalanib] + C[C@]1(O)C[C@@H](c2nc(-c3ccc4ccc(-c5ccccc5)nc4c3)c3c(N)nccn32)C1 [Linsitinib] (partner 1 µM)
NCI-H1915; first compound 0.04 µM
  relative viability: 1.06
NCI-H1915; first compound 0.1265 µM
  relative viability: 1.09
NCI-H1915; first compound 0.4 µM
  relative viability: 1.09
NCI-H1915; first compound 1.265 µM
  relative viability: 1.04
NCI-H1915; first compound 4 µM
  relative viability: 1.09
NCI-H596; first compound 0.04 µM
  relative viability: 1.18
NCI-H596; first compound 0.1265 µM
  relative viability: 1.13
NCI-H596; first compound 0.4 µM
  relative viability: 0.951
NCI-H596; first compound 1.265 µM
  relative viability: 1.14
NCI-H596; first compound 4 µM
  relative viability: 1.08
NCI-H2347; first compound 0.04 µM
  relative viability: 1.01
NCI-H2347; first compound 0.1265 µM
  relative viability: 0.908
NCI-H2347; first compound 0.4 µM
  relative viability: 0.976
NCI-H2347; first compound 1.265 µM
  relative viability: 0.901
NCI-H2347; first compound 4 µM
  relative viability: 0.942
LXF-289; first compound 0.04 µM
  relative viability: 1.04
LXF-289; first compound 0.1265 µM
  relative viability: 0.947
LXF-289; first compound 0.4 µM
  relative viability: 0.957
LXF-289; first compound 1.265 µM
  relative viability: 0.888
LXF-289; first compound 4 µM
  relative viability: 0.919
NCI-H661; first compound 0.04 µM
  relative viability: 0.59
NCI-H661; first compound 0.1265 µM
  relative viability: 0.477
NCI-H661; first compound 0.4 µM
  relative viability: 0.616
NCI-H661; first compound 1.265 µM
  relative viability: 0.581
NCI-H661; first compound 4 µM
  relative viability: 0.581
NCI-H441; first compound 0.04 µM
  relative viability: 0.597
NCI-H441; first compound 0.1265 µM
  relative viability: 0.515
NCI-H441; first compound 0.4 µM
  relative viability: 0.583
NCI-H441; first compound 1.265 µM
  relative viability: 0.722
NCI-H441; first compound 4 µM
  relative viability: 0.645
NCI-H3122; first compound 0.04 µM
  relative viability: 1.14
NCI-H3122; first compound 0.1265 µM
  relative viability: 0.97
NCI-H3122; first compound 0.4 µM
  relative viability: 0.961
NCI-H3122; first compound 1.265 µM
  relative viability: 1.02
NCI-H3122; first compound 4 µM
  relative viability: 1.02
SK-MES-1; first compound 0.04 µM
  relative viability: 1.04
SK-MES-1; first compound 0.1265 µM
  relative viability: 1.03
SK-MES-1; first compound 0.4 µM
  relative viability: 1.17
SK-MES-1; first compound 1.265 µM
  relative viability: 1.02
SK-MES-1; first compound 4 µM
  relative viability: 0.928
NCI-H1355; first compound 0.04 µM
  relative viability: 0.87
NCI-H1355; first compound 0.1265 µM
  relative viability: 0.818
NCI-H1355; first compound 0.4 µM
  relative viability: 0.915
NCI-H1355; first compound 1.265 µM
  relative viability: 0.772
NCI-H1355; first compound 4 µM
  relative viability: 0.763
NCI-H1755; first compound 0.04 µM
  relative viability: 0.984
NCI-H1755; first compound 0.1265 µM
  relative viability: 1.04
NCI-H1755; first compound 0.4 µM
  relative viability: 0.995
NCI-H1755; first compound 1.265 µM
  relative viability: 0.991
NCI-H1755; first compound 4 µM
  relative viability: 0.919
NCI-H1563; first compound 0.04 µM
  relative viability: 1.42
NCI-H1563; first compound 0.1265 µM
  relative viability: 1.27
NCI-H1563; first compound 0.4 µM
  relative viability: 1.24
NCI-H1563; first compound 1.265 µM
  relative viability: 1.12
NCI-H1563; first compound 4 µM
  relative viability: 1.2
NCI-H322M; first compound 0.04 µM
  relative viability: 0.939
NCI-H322M; first compound 0.1265 µM
  relative viability: 0.83
NCI-H322M; first compound 0.4 µM
  relative viability: 0.975
NCI-H322M; first compound 1.265 µM
  relative viability: 0.959
NCI-H322M; first compound 4 µM
  relative viability: 0.919
NCI-H727; first compound 0.04 µM
  relative viability: 0.3
NCI-H727; first compound 0.1265 µM
  relative viability: 0.184
NCI-H727; first compound 0.4 µM
  relative viability: 0.358
NCI-H727; first compound 1.265 µM
  relative viability: 0.236
NCI-H727; first compound 4 µM
  relative viability: 0.285
NCI-H460; first compound 0.04 µM
  relative viability: 1.01
NCI-H460; first compound 0.1265 µM
  relative viability: 0.684
NCI-H460; first compound 0.4 µM
  relative viability: 0.732
NCI-H460; first compound 1.265 µM
  relative viability: 0.699
NCI-H460; first compound 4 µM
  relative viability: 0.711
LCLC-103H; first compound 0.04 µM
  relative viability: 1.24
LCLC-103H; first compound 0.1265 µM
  relative viability: 1.07
LCLC-103H; first compound 0.4 µM
  relative viability: 1.24
LCLC-103H; first compound 1.265 µM
  relative viability: 1.06
LCLC-103H; first compound 4 µM
  relative viability: 1.05
NCI-H520; first compound 0.04 µM
  relative viability: 0.901
NCI-H520; first compound 0.1265 µM
  relative viability: 0.888
NCI-H520; first compound 0.4 µM
  relative viability: 0.802
NCI-H520; first compound 1.265 µM
  relative viability: 0.86
NCI-H520; first compound 4 µM
  relative viability: 0.989
PC-14; first compound 0.04 µM
  relative viability: 0.955
PC-14; first compound 0.1265 µM
  relative viability: 0.905
PC-14; first compound 0.4 µM
  relative viability: 1.03
PC-14; first compound 1.265 µM
  relative viability: 0.955
PC-14; first compound 4 µM
  relative viability: 0.871
NCI-H1651; first compound 0.04 µM
  relative viability: 0.971
NCI-H1651; first compound 0.1265 µM
  relative viability: 0.927
NCI-H1651; first compound 0.4 µM
  relative viability: 0.94
NCI-H1651; first compound 1.265 µM
  relative viability: 0.948
NCI-H1651; first compound 4 µM
  relative viability: 1.13
NCI-H650; first compound 0.04 µM
  relative viability: 0.942
NCI-H650; first compound 0.1265 µM
  relative viability: 0.77
NCI-H650; first compound 1.265 µM
  relative viability: 0.723
NCI-H650; first compound 4 µM
  relative viability: 0.833
RERF-LC-KJ; first compound 0.04 µM
  relative viability: 0.932
RERF-LC-KJ; first compound 0.1265 µM
  relative viability: 0.875
RERF-LC-KJ; first compound 0.4 µM
  relative viability: 0.933
RERF-LC-KJ; first compound 1.265 µM
  relative viability: 0.762
RERF-LC-KJ; first compound 4 µM
  relative viability: 0.812
NCI-H1792; first compound 0.04 µM
  relative viability: 0.465
NCI-H1792; first compound 0.1265 µM
  relative viability: 0.494
NCI-H1792; first compound 0.4 µM
  relative viability: 0.506
NCI-H1792; first compound 1.265 µM
  relative viability: 0.493
NCI-H1792; first compound 4 µM
  relative viability: 0.515
